ChEMBL document CHEMBL1136124, “Copper complex of hydroxyl-substituted triazamacrocyclic ligand and its antitumor activity” (2003)

Key:
HXO-RB44 cell line [1] = assay: In vitro antitumor activity of concentration of 10-5 mol.L-1 against HXO-RB44 cell line using MTT assay; assay type: functional, Homo sapiens; details: for inhibition: Homo sapiens
Bel-7402 [2] = assay: In vitro antitumor activity of concentration of 10-3 mol.L-1 against BEL-7402 cell line using MTT assay; assay type: functional, Homo sapiens; details: for inhibition: Homo sapiens
HXO-RB44 cell line [3] = assay: In vitro antitumor activity of concentration of 10-6 mol.L-1 against HXO-RB44 cell line using MTT assay; assay type: functional, Homo sapiens; details: for inhibition: Homo sapiens
HXO-RB44 cell line [4] = assay: In vitro antitumor activity of concentration of 10-4 mol.L-1 against HXO-RB44 cell line using MTT assay; assay type: functional, Homo sapiens; details: for inhibition: Homo sapiens
Bel-7402 [5] = assay: In vitro antitumor activity of compound at a concentration 10-4 mol.L-1 against BEL-7402 cell line using MTT assay; assay type: functional, Homo sapiens; details: for inhibition: Homo sapiens
Bel-7402 [6] = assay: In vitro antitumor activity of compound at a […] mol.L-1 against BEL-7402 cell line using MTT assay; assay type: functional, cell-based; details: Homo sapiens

**Q.** Which results are given for OC1CNCCNCCNC1?
**A.** Inhibition (HXO-RB44 cell line [1]): 3%; Inhibition (Bel-7402 [2]): 34%; Inhibition (HXO-RB44 cell line [3]): 1%; Inhibition (HXO-RB44 cell line [4]): 3%; Inhibition (Bel-7402 [5]): 16%

**Q.** Which results are given for COPPER?
**A.** inhibition (HXO-RB44 cell line [1]): 3%; inhibition (Bel-7402 [6]): 2%; inhibition (Bel-7402 [2]): 81%; inhibition (HXO-RB44 cell line [3]): 0%; inhibition (HXO-RB44 cell line [4]): 5%; inhibition (Bel-7402 [5]): 3%

**Q.** With [1,4,7]Triazecan-9-ol copper complex as the molecule, how does the inhibition (HXO-RB44 cell line [1]) read?
**A.** The inhibition was 13%.

**Q.** And the inhibition (Bel-7402 [6])?
**A.** The inhibition was 11%.

**Q.** And the inhibition (Bel-7402 [2])?
**A.** Its inhibition is 97%.

**Q.** And the inhibition (HXO-RB44 cell line [3])?
**A.** The inhibition was 2%.

**Q.** What about the inhibition (HXO-RB44 cell line [4]) of the same molecule?
**A.** The inhibition was 64%.

**Q.** What about the inhibition (Bel-7402 [5]) of the same molecule?
**A.** The inhibition was 47%.
